According to EP0567613B1, “COMPOSITIONS FOR THERAPY AND PREVENTION OF CANCER” (The Government of the United States of America, as …, priority 1991, dated 1993):

Tests used:
Leukemia K562 = test: Tumor cell growth / proliferation; settings: K562 cell line
[1] = tested on: premalignant 10T1/2 cells; test: cells; settings: for Differentiation at 1 mM: sodium salts; for DC50: Mus musculus, Adipocyte, read-out: DC50, concentration of compound causing 50% differentiation; for adipocyte conversion: glutamine antagonists
Method: C. Quantitation of adipocytosis. Lipids stained with Oil-Red O were extracted with butanol, and the optical density at 510 nm determined.
Lower: Quantitation of adipocytosis. Cells were fixed with 37% formaldehyde and stained with Oil-Red O. The stained intracellular lipid was extracted with butanol, and the optical density was determined using a Titertek Multiskan MC, manufactured by Flow Laboratories, at a wavelength 510 nm.

[2] = tested on: 4C8a10 cells (revertants of Haras-transformed NIH3T3 fibroblasts); test: Tumor formation of cells pretreated in culture and injected s.c. into athymic nude mice; format: in vivo; settings: cells pretreated with 5-AzadC 0.1 µM, after 3 weeks
Description: One-two weeks later the cells were transplanted subcutaneously into athymic mice.
(§1) The experimental model involved nonmalignant 4C8a10 cells (revertants of Haras-transformed NIH3T3 fibroblasts). […]
Frederick Cancer Research Facility).

C3H 10T1/2 Cells = test: Tumorigenicity of treated cells in athymic mice; settings: time 8 weeks
Method: Premalignant cells (3-4 x 10^5) were plated in 75 cm^2 dishes and 5-AzadC 0.1 µM was added to the growth medium at 20 and 48 hrs after plating. The cells were then subcultured in the absence of the nucleoside analog for an additional seven weeks. […] For the tumorigenicity assay, 4-5 week-old female athymic nude mice were inoculated s.c. with 1 x 10^6 cells and observed for tumor growth at the site of injection.

10T1/2 cells = test: Neoplastic foci formation in culture
Description: […] The cells were then subcultured in the absence of the nucleoside analog for an additional seven weeks. […] For the tumorigenicity assay, 4-5 week-old female athymic nude mice were inoculated s.c. with 1 x 10^6 cells and observed for tumor growth at the site of injection.

4C8a10 cells = test: Malignant phenotype in culture / growth on matrigel; format: cell-based
Method: as §1
^b Cells were plated on top of matrigel (reconstituted basement membrane) and observed for malignant growth pattern, i.e., active replication, development of characteristic processes, and invasion.

HL-60 = test: Granulocyte differentiation (NBT reduction, morphology) and viability by trypan blue exclusion; settings: Homo sapiens, HL-60, read-out: Cell viability
Method: The number of NBT positive cells was determined after 4 [solid bars] or 7 days [hatched bar] of treatment. […] Glutamine Starvation (Gln, < 0.06 mM) was as described (18).
The ability of cells to reduce nitroblue tetrazolium (NBT) is indicative of oxidase activity which is characteristic of the more mature forms of human bone marrow granulocytes. NBT reduction thus serves as an indicator of granulocyte differentiation. […] Glutamine starvation (Gln, < 0.06 mM) was as described. […] DON, ACV and HPA are glutamine antagonists.

[3] = tested on: Erythroleukemia K562 cells; test: Induction of hemoglobin synthesis (benzidine staining, protein quantitation); settings: HU 100 µM, seven days
[4] = tested on: Prostate Adenocarcinoma PC3; test: Tumor cell growth / proliferation; format: cell-based; settings: Homo sapiens, PC-3
Method: Studies of depth were performed with two androgenindependent human prostate adenocarcinoma cell lines, PC3 and DU145, established from bone and brain metastases, respectively.

Malignant Melanoma A375 = test: Tumor cell growth / proliferation

O=C(O)Cc1cc(O)cc(O)c1
toxicity (Leukemia K562): highly toxic

O=C(O)Cc1cccc2ccccc12 [1-naphthylacetate]
Differentiation at 1 mM [1]: >95%
DC50 [1]: < 100 µM

O=C(O)Cc1ccc(O)cc1O [2,4-dihydroxyphenylacetate]
toxicity (Leukemia K562): highly toxic

O=C(O)Cc1c(Cl)cccc1Cl [2,6-dichlorophenylacetate]
Differentiation at 1 mM [1]: 75%
DC50 [1]: 500 µM

O=C(O)Cc1cccc(Cl)c1 [3-chlorophenylacetate]
Differentiation at 1 mM [1]: 80%
DC50 [1]: 500 µM

O=C(O)Cc1ccc(Cl)cc1 [4-chlorophenylacetate]
Differentiation at 1 mM [1]: 50%
DC50 [1]: 1000 µM

O=C(O)Cc1ccc(F)cc1 [4-fluorophenylaceatae]
Differentiation at 1 mM [1]: 65%
DC50 [1]: 700 µM

Nc1ncn([C@H]2C[C@H](O)[C@@H](CO)O2)c(=O)n1 [5-AzadC, 5-aza-2'-deoxycytidine, reference compound]
Tumor Formation Incidence ([2]; 5x10^5 cells per site s.c.): 8/8
Tumor Formation Size, mean (range) [2]: 11.5 (4-19) mm
Tumors Incidence (C3H 10T1/2 Cells; 5-AzadC 0.1 µM at 20 and 48 hrs after plating, 1 x 10^6 cells s.c.): 8/8
Tumors Diameter (C3H 10T1/2 Cells; 5-AzadC 0.1 µM): 5.5 ± 2.5 mm ± S.D.
frequency of foci of neoplastically transformed cells (10T1/2 cells): about 7x10^-4
Growth on matrigel (4C8a10 cells; 5-AzadC 0.1 µM): +
time until malignant conversion evident (4C8a10 cells; transient treatment of premalignant cells): ≤ 2 days

N[C@H](C(=O)O)[C@@H]1CC(Cl)=NO1 [ACV, acivicin]
viability at 1 µg/mL (HL-60): 63%
viability at 3 µg/mL (HL-60): 63%
adipocyte conversion [1]: neither glutamine starvation nor by treatment with glutamine antagonists such as DON and ACV resulted in adipocyte conversion

[N-]=[N+]=CC(=O)CC[C@H](N)C(=O)O [DON, 6-diazo-5-oxo-L-norleucine]
viability at 25 µg/mL (HL-60): 75%
viability at 30 µg/mL (HL-60): 75%
adipocyte conversion [1]: neither glutamine starvation nor by treatment with glutamine antagonists such as DON and ACV resulted in adipocyte conversion

NC(=O)NO [HU, hydroxyurea, reference compound]
Benzidine Positive Cells [3]: 17.2%

Cc1ccc(C(=O)Nc2ccc(S(=O)(=O)O)c3cc(S(=O)(=O)O)cc(S(=O)(=O)O)c23)cc1NC(=O)c1cccc(NC(=O)Nc2cccc(C(=O)Nc3cc(C(=O)Nc4ccc(S(=O)(=O)O)c5cc(S(=O)(=O)O)cc(S(=O)(=O)O)c45)ccc3C)c2)c1 [Suramin, suramin]
activity at 75 µg/mL ([4]; Suramin 75 µg/ml): 58.5%
activity at 150 µg/mL ([4]; Suramin 150 µg/ml): 46.5%
activity at 300 µg/mL ([4]; Suramin 300 µg/ml): 31%
Growth (Malignant Melanoma A375; Suramin 38 µg/ml): 78.3 % of control
Viability (Malignant Melanoma A375; Suramin 38 µg/ml): > 95%
Growth (Malignant Melanoma A375; Suramin 75 µg/ml): 56.8 % of control
Viability (Malignant Melanoma A375; Suramin 75 µg/ml): > 95%
Growth (Malignant Melanoma A375; Suramin 150 µg/ml): 38.6 % of control
Viability (Malignant Melanoma A375; Suramin 150 µg/ml): 92%
Growth (Malignant Melanoma A375; Suramin 300 µg/ml): 26.6 % of control
Viability (Malignant Melanoma A375; Suramin 300 µg/ml): 82%
